Experimental data published in article PMC6423038, “Deferiprone: Pan-selective Histone Lysine Demethylase Inhibition Activity and Structure Activity Relationship Study” (Scientific Reports, 2019).

Tests used:
KDM4A (JMJD2A) = molecular target: T1, KDM4A (JMJD2A) (Homo sapiens, UniProt O75164); test: KDM cell-free assay (AlphaScreen, BPS Bioscience); type: biochemical; settings: recombinant human KDM4A (JMJD2A); max tested 25 μM
T1 construct: purchased BPS Bioscience

KDM3B (JMJD1B) = KDM3B (JMJD1B) (Homo sapiens, UniProt Q7LBC6); test: KDM cell-free assay (AlphaScreen, BPS Bioscience)
Chain of KDM3B (JMJD1B) (Q7LBC6 whole entry): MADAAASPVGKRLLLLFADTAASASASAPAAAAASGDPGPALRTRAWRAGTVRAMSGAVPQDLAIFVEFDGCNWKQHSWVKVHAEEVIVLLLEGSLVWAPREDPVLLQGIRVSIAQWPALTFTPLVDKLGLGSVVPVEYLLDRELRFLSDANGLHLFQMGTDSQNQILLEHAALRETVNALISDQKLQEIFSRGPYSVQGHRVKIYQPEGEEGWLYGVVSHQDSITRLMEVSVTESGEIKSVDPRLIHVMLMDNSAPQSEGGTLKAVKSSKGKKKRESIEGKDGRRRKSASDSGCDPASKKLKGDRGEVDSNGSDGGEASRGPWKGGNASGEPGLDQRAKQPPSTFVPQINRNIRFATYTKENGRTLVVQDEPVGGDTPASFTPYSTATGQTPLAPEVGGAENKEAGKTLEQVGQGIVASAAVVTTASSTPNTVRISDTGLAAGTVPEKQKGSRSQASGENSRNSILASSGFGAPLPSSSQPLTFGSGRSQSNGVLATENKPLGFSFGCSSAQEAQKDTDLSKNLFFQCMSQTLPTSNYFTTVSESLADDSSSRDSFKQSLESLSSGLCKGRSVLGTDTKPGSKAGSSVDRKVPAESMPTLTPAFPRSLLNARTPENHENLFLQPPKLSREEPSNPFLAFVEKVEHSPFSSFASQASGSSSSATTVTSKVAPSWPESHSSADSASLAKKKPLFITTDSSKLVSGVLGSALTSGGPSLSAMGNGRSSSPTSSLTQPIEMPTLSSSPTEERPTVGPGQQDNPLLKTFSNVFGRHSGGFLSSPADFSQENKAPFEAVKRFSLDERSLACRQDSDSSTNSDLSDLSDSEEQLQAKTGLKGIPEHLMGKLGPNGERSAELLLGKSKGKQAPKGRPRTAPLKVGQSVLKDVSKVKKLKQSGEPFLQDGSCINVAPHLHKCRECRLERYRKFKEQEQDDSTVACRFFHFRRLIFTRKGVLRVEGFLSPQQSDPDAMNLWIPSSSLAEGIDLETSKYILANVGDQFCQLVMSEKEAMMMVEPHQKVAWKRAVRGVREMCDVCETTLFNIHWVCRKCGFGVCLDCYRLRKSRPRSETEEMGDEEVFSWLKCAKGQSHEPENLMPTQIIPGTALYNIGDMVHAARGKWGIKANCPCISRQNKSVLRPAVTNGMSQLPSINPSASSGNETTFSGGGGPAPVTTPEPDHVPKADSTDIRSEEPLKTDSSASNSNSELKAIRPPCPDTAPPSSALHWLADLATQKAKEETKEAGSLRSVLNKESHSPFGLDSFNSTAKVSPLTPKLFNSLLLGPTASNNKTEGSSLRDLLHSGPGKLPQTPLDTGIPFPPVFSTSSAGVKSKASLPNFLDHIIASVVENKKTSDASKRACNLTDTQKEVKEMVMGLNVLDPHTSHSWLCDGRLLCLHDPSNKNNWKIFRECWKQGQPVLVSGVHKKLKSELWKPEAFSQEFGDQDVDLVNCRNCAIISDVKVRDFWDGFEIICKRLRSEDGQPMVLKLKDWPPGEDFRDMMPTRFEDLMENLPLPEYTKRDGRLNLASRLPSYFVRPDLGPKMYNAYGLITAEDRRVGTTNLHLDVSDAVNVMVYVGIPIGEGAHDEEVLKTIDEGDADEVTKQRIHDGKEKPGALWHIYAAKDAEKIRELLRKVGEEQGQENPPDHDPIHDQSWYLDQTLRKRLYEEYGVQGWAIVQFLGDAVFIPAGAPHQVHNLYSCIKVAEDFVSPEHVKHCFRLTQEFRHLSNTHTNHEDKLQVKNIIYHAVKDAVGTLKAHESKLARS

[1] = test system: HP1-mediated heterochromatin gene repression in CiA:Oct4 embryonic stem cells; test: HP1-recruitment assay dose curve (CiA:Oct4, with CIP-rapamycin), flow cytometry; type: cell-based, mouse; settings: 48 h with CIP-rapamycin recruitment of HP1; up to 10 µM
Excerpt: To elucidate the effect of DFP-based KDM inhibitors on chromatin dynamics, we profiled them in an intracellular assay which measures heterochromatin formation speed. The chromatin in vivo assay (CiA) leverages chemical induced proximity (CIP) to recruit heterochromatin protein 1 (HP1) to a modified Oct4 locus. This reporter system is composed of tandem arrays of Gal4 and zinc finger DNA binding domains in the promoter of one allele of Oct4, where the gene was replaced by a nuclear eGFP reporter. Protein fusions of Gal4-FKBP and FRB-HP1 allow for direct chemical recruitment of HP1 to the CiA:Oct4 reporter locus upon addition of the chemical inducer of proximity (CIP)-rapamycin. After CIP-rapamycin addition, HP1 is recruited to the reporter locus and brings histone methyltransferase enzymes to the chromatin reporter resulting in the repressive H3K9me3 mark being deposited (Fig. 10A). H3K9me3 deposition is the signature mark of heterochromatin and is coupled with gene silencing and loss of GFP expression (Fig. 10B)[33]. Others have shown that H3K4me3 marked nucleosomes impede H3K9 methyltransferase activity. Thus, we postulate that the active H3K4me3 mark must be removed by KDM enzymes as part of the transformation from euchromatin to heterochromatin. Inhibition of KDMs, specifically those targeting H3K4me3, would result in a decrease in H3K9me3 accumulation, which would be measured in our assay as an increase in GFP positive cells.
To determine the effect of DFP-based KDM inhibitors on HP1-mediated gene repression, we treated CiA:Oct4 embryonic stem (ES) cells with doses of representative compounds ranging from 10 µM–250 nM for 48 h with CIP-rapamycin recruitment of HP1 (Fig. 10C). […] The percentage of GFP(+) cells was determined by flow cytometry as indicated in representative histograms (Supplemental Fig. S8).
Day 0, CiA:Oct4 N118/163 cells were grown in ES media and seeded at a density of 10,000 cells per well in 100 μL media (100,000 cells mL^−1) on gelatin coated 96 well plates. Day 1, culture media was aspirated and replaced with 100 µL ES media containing +/− 6 nM rapamycin. 10 µM, 5 µM, 2.5 µM, 1 µM, 500 nM, and 250 nM concentrations of compound or DMSO were added using a TTP Labtech Mosquito HTS liquid handler. Days 2, fresh ES media +/− rapamycin and compound were added as in Day 1. Day 3, cells were washed with PBS and trypsinized using 0.25% trypsin-EDTA. Trypsin was quenched with serum. Cells were resuspended by pipetting in preparation for flow cytometry analysis.
Flow cytometry data was acquired using the Intellicyt iQue Screener and analyzed with FlowJo software.
The CiA:Oct4 recruitment system in mouse embryonic stem cells contains Gal4 and Zinc finger DNA binding arrays and a downstream nuclear eGFP gene in place of a single Oct4 allele as previously described.^30 The CiA:Oct4 N118/N163 cell line containing viral integrations of N118 and N163 plasmids (N118- nLV EF-1α-Gal-FKBPx1-HA-PGK-Blast, N163- nLV EF-1α-HP1α (CS)-Frbx2(Frb+FrbWobb)-V5-PGK-Puro) was used for inhibition of HP1-mediated heterochromatin studies. All plasmids are freely available on addgene.
HP1-Recruitment Assay Dose Curve. Day 0, CiA:Oct4 N118/163 cells were grown in ES media and seeded at a density of 10,000 cells per well in 100 µL media (100,000 cells mL^-1) on gelatin coated 96 well plates. Day 1, culture media was aspirated and replaced with 100 µL ES media containing +/- 6 nM rapamycin. 10 µM, 5 µM, 2.5 µM, 1 µM, 500 nM, and 250 nM concentrations of compound or DMSO were added using a TTP Labtech Mosquito HTS liquid handler. Days 2, fresh ES media +/- rapamycin and compound were added as in Day 1. Day 3, cells were washed with PBS and trypsinized using 0.25% trypsin-EDTA. Trypsin was quenched with serum. Cells were resuspended by pipetting in preparation for flow cytometry analysis.
Flow Cytometry and Analysis.

T1 sequence (O75164 whole entry): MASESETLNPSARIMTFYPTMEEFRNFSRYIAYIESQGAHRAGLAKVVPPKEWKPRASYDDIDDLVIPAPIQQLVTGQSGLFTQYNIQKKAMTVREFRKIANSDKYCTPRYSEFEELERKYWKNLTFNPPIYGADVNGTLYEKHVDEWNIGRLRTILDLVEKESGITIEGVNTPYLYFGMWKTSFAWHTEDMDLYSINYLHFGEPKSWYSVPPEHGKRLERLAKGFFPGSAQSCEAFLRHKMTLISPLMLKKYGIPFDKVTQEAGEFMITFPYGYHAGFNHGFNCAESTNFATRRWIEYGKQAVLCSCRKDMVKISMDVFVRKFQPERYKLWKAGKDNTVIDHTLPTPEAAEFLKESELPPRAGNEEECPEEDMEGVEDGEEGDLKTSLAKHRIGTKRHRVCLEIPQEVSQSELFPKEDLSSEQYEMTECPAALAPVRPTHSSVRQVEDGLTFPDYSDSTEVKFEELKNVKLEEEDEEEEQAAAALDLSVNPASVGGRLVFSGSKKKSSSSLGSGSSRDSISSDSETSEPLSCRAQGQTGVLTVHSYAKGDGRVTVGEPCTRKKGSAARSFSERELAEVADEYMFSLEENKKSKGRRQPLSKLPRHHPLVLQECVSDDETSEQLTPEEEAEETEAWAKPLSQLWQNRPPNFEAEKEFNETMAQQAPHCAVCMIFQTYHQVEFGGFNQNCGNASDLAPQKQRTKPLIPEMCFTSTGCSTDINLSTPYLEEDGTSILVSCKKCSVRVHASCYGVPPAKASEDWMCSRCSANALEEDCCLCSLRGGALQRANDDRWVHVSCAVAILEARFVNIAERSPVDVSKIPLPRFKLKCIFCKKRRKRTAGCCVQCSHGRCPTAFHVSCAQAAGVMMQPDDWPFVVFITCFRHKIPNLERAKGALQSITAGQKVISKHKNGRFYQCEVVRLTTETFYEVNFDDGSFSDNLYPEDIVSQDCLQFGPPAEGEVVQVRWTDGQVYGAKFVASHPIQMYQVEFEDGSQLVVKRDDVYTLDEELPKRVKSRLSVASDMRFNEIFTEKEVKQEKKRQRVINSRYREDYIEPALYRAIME

With `Cc1c(O)c(=O)ccn1C` [DFP, Deferiprone] the IC50 (KDM4A (JMJD2A)) was greater than 25 µM, the IC50 (KDM3B (JMJD1B)) was greater than 25 µM and the “inhibition of heterochromatin formation” value [1] was “did not inhibit heterochromatin formation”.
